Results published in patent publication US8703467B2 (priority 2004, dated 2014).
Where two headings read alike, the source gives them in different places.

Tested on: mice
Experimental: A formalin-inactivated and a double-inactivated (formalin+UV-irradiation) RRV candidate vaccine was adjusted to 10 μg per dose, and then diluted in 4 fold steps. Each dilution was injected into a group of 10 mice. After 3 weeks the mice were boostered with the corresponding amount of the vaccine. Blood samples were drawn at week 3, before the booster, and at week 6, 3 weeks after the booster. The sera were analyzed by a RRV antibody ELISA. The effective dose 50 (ED50), this is the antigen dose which is sufficient to induce seroconversion in 50% of the immunized mice, was then calculated.

Formalin
number of mice with ELISA-Titer 10^1 (Week 3, N 60): 8 | number of mice with ELISA-Titer 10^2 (Week 3, N 60): 8 | number of mice with ELISA-Titer 10^3 (Week 3, N 60): 9 | number of mice with ELISA-Titer 10^4 (Week 3, N 60): 0 | number of mice with ELISA-Titer 10^5 (Week 3, N 60): 0 | number of mice with ELISA-Titer 10^6 (Week 3, N 60): 0 | number of mice with ELISA-Titer 10^7 (Week 3, N 60): 0 | number of mice with ELISA-Titer 10^8 (Week 3, N 60): 0 | number of mice with ELISA-Titer <10^1 (Week 3, N 60): 35 | number of mice with ELISA-Titer 10^4 (Week 3, N 60, listed as formalin group): no mouse | number of mice with ELISA-Titer 10^1 (Week 6, after booster, N 60): 7 | number of mice with ELISA-Titer 10^2 (Week 6, after booster, N 60): 5 | number of mice with ELISA-Titer 10^3 (Week 6, after booster, N 60): 15 | number of mice with ELISA-Titer 10^4 (Week 6, after booster, N 60): 11 | number of mice with ELISA-Titer 10^5 (Week 6, after booster, N 60): 8 | number of mice with ELISA-Titer 10^6 (Week 6, after booster, N 60): 0 | number of mice with ELISA-Titer 10^7 (Week 6, after booster, N 60): 0 | number of mice with ELISA-Titer 10^8 (Week 6, after booster, N 60): 0 | number of mice with ELISA-Titer <10^1 (Week 6, after booster, N 60): 14 | ED50 Week 6 (Booster) (mice, 3 weeks after the booster): 33 ng | ED50 Week 3 (mice, before the booster, antigen dose inducing seroconversion in 50% of immunized mice): 635 ng
